# Source: patent US12329745B2, “Methods and compositions for treating glucocorticoid excess” (Sparrow Pharmaceuticals, Inc., priority 2022, dated 2025)
# Read-outs that look alike come from different tables or passages of the source.
# Columns and labels:
# HSD-1 [1] = molecular target: T1, HSD-1 (Homo sapiens, UniProt P28845); assay: Surface plasmon resonance binding kinetics in presence of NADPH (residence time); settings: 300 μM NADPH, reciprocal of the dissociation rate constant
# From the text: Pseudo-irreversible HSD-1 inhibitors can be identified via in vitro enzyme kinetics evaluation, in which they are expected to show longer enzyme residence times compared to other HSD-1 inhibitors. Surface plasmon resonance (SPR) is the resonant oscillation of conduction electrons at the interface between negative and positive permittivity material stimulated by incident light. When a protein is bound to a surface, SPR can be used to detect ligand binding to the protein. […] Association and dissociation of test compounds were monitored in the presence of 300 µM NADPH throughout the experiment.
# [2] = system: urine tetrahydrocortisone; settings: healthy adults and elderly subjects; 7-21 days; cited from earlier work
# [3] = cited from earlier work; for plasma exposures after single doses, dose proportionality: low single doses; for estimated target capacity / capacity of saturable distribution: population pharmacokinetics model
# [4] = cynomolgus monkey liver; cited from earlier work
# [5] = INCB-13739 diabetes; R05093151 non-alcoholic fatty liver disease; AZD4017 impaired wound healing; ABT-384 dementia; BI-187004 diabetes; cited from earlier work
# brain HSD-1 = molecular target: T2, brain HSD-1 (Homo sapiens, UniProt P28845); settings: healthy adults; cited from earlier work
# T2 construct: Brain HSD-1 occupancy following a single dose of SPI-62 3 mg; from tissue; host or cells: brain in vivo
# T2 sequence (P28845 whole entry): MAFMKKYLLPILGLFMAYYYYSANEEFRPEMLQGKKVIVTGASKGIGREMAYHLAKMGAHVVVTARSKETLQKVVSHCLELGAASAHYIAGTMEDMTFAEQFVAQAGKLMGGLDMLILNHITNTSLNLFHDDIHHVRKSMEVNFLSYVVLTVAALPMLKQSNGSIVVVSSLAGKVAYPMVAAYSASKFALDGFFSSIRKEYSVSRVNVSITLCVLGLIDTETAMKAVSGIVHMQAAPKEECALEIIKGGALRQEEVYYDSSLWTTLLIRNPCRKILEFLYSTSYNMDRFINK
# HSD-1 [6] = molecular target: T1, HSD-1; assay: Target-mediated drug disposition (TMDD) population PK / PK-PD model; settings: in vivo
# adipose HSD-1 = molecular target: T3, adipose HSD-1 (Homo sapiens, UniProt P28845); settings: in vivo; cited from earlier work
# T3 construct: infused continuously into subcutaneous abdominal adipose tissue via microdialysis catheters; from tissue; host or cells: human subcutaneous abdominal adipose tissue, in vivo
# T3 sequence (P28845 whole entry, the tested form may be a part): as the sequence (P28845 whole entry) above
# skin HSD-1 = skin HSD-1 (Homo sapiens, UniProt P28845); settings: in vivo; cited from earlier work
# Sequence of skin HSD-1 (P28845 whole entry): as above
# liver HSD-1 = liver HSD-1 (Homo sapiens, UniProt P28845); settings: same subjects, multiple doses; cited from earlier work
# Sequence of liver HSD-1 (P28845 whole entry): as above
# mouse = settings: cited from earlier work
# rabbit = settings: cited from earlier work
# [7] = read-out: Residence Time (converted)
# T1 sequence (P28845 whole entry): as above
smiles,measurement,setting,value
"CC(C)(C(=O)N[C@H]1C2CC3CC1C[C@@](C(N)=O)(C3)C2)N1CCN(c2ccc(C(F)(F)F)cn2)CC1 [ABT-384, (1s,3R,4r,5S,7s)-4-(2-methyl-2-(4-(5-(trifluoromethyl)pyridin-2-yl)piperazin-1-yl)propanamido)adamantane-1-carboxamide]",residence time,HSD-1 [1]; [7],43.5 min
same,liver cortisone levels (urine tetrahydrocortisone),[2],increased substantially
same,"plasma levels after multiple doses / steady state, dose proportionality",[3]; in vivo,approximately dose-proportional
same,"plasma exposures after single doses, dose proportionality",[3],substantial non-linearity
same,estimated target capacity / capacity of saturable distribution,[3],~1 mg
same,retention in liver,[4],at least 77 days
same,clinical trial efficacy,[5],lack of efficacy
same,time after cessation of daily administration up to which complete brain HSD-1 inhibition was observed,brain HSD-1,up to 40 hours
same,Kd lower than the Ki,HSD-1 [6],approximately 60 fold
"CC(C)[C@]1(C)SC(N[C@H]2C[C@@H]3CC[C@H]2C3)=NC1=O [AMG-221, (S,E)-2-(((1S,2S,4R)-bicyclo[2.2.1]heptan-2-yl)imino)-5-isopropyl-5-methylthiazolidin-4-one]","plasma exposures after single doses, dose proportionality",[3],nonlinearity of pharmacokinetics
"CCCSc1nc(N2CCC[C@@H](CC(=O)O)C2)ccc1C(=O)NC1CCCCC1 [AZD4017, (S)-2-(1-(5-(cyclohexylcarbamoyl)-6-(propylthio)pyridin-2-yl)piperidin-3-yl)acetic acid]",adipose HSD-1 inhibition after a single dose,adipose HSD-1,demonstrated adipose HSD-1 inhibition
same,adipose HSD-1 inhibition after repeated dosing,adipose HSD-1,no sustained inhibitory effect
same,tachyphylaxis of human adipose HSD-1 inhibition with multiple dosing,adipose HSD-1,showed tachyphylaxis
same,skin HSD-1 inhibition after multiple doses,skin HSD-1,no skin HSD-1 inhibition
same,liver HSD-1 inhibition,liver HSD-1,maximal
"CC(C)(C)c1c(C(=O)NC2C3CC4CC(C3)CC2C4)cnn1-c1ccc(C(=O)O)cc1 (centres unmarked) [AZD8329, 4-(4-(((1r,3r,5r,7r)-adamantan-2-yl)carbamoyl)-5-(tert-butyl)-1H-pyrazol-1-yl)benzoic acid]",residence time,HSD-1 [1]; [7],3.45 min
same,adipose HSD-1 inhibition after repeated dosing,adipose HSD-1,lost
same,tachyphylaxis of human adipose HSD-1 inhibition with multiple dosing,adipose HSD-1,showed tachyphylaxis
"N#Cc1ccc2c(c1)[C@H]1CCCN(C(=O)c3ccc4nc[nH]c4c3)[C@H]1C2 [BI-187004, (4aR,9aS)-1-(1H-benzo[d]imidazole-6-carbonyl)-2,3,4,4a,9,9a-hexahydro-1H-indeno[2,1-b]pyridine-6-carbonitrile]","plasma exposures after single doses, dose proportionality",[3],substantially below
same,clinical trial efficacy,[5],lack of efficacy
O=C(CC1(c2ccccc2)C2CC3CC1CC(C2)C3O)N1CC(O)C1 (centres unmarked) [BMS-816336],residence time,HSD-1 [1],2.15 min
"CC(C)(O)c1cccn2c(C3(c4ccc(Cl)cc4)CC3)nnc12 [BMS-823778, 2-(3-(1-(4-chlorophenyl)cyclopropyl)-[1,2,4]triazolo[4,3-a]pyridin-8-yl)propan-2-ol]",residence time,HSD-1 [1]; [7],2.03 min
same,plasma levels after a single 0.1 or 0.5 mg dose,[3]; in vivo,not detected
same,"plasma levels after multiple doses / steady state, dose proportionality",[3]; in vivo,dose proportional
same,"plasma exposures after single doses, dose proportionality",[3],less than dose proportional
CC1(C)[C@@H](OC(=O)CCC(=O)O)CC[C@]2(C)[C@H]3C(=O)C=C4[C@@H]5C[C@@](C)(C(=O)O)CC[C@]5(C)CC[C@@]4(C)[C@]3(C)CC[C@@H]12 [Carbenoxolone],GC-induced wound healing impairment,mouse,prevented
CC1(C)[C@@H](O[C@H]2O[C@H](C(=O)O)[C@@H](O)[C@H](O)[C@H]2O[C@@H]2O[C@H](C(=O)O)[C@@H](O)[C@H](O)[C@H]2O)CC[C@]2(C)[C@H]3C(=O)C=C4[C@@H]5C[C@@](C)(C(=O)O)CC[C@]5(C)CC[C@@]4(C)[C@]3(C)CC[C@@H]12 [Glycyrrhizin],intraocular pressure increase associated with intravitreal triamcinolone,rabbit,partially prevented
CNC(=O)c1ccc(-c2ccc(C3(C(=O)N4CC[C@@]5(C4)OC(=O)c4ccccc45)CC3)cc2)cn1 [INCB-13739],residence time,HSD-1 [1],4.53 min
same,clinical trial efficacy,[5],support efficacy
"CC1CN(CC(=O)NC2C3CC4CC2CC(C(N)=O)(C4)C3)S(=O)(=O)N(c2c(Cl)cc(C(F)(F)F)cc2Cl)C1 [KR-67607, (1s,3R,4s,5S,7s)-4-(2-(6-(2,6-dichloro-4-(trifluoromethyl)phenyl)-4-methyl-1,1-dioxido-1,2,6-thiadiazinan-2-yl)acetamido)adamantane-1-carboxamide]",residence time,HSD-1 [1]; [7],8.63 min
"CCS(=O)(=O)CCCC12CCC(c3nnc(-c4ccccc4C(F)(F)F)n3C)(CC1)CC2 [MK-0736, 3-(4-(3-(ethylsulfonyl)propyl)bicyclo[2.2.2]octan-1-yl)-4-methyl-5-(2-(trifluoromethyl)phenyl)-4H-1,2,4-triazole]","plasma exposures after single doses, dose proportionality",[3],"non-linear, saturable distribution PK"
"F[C@H]1C[C@@](c2ccc(Cl)cc2)(c2nnc(C3CC3)n2C2CC2)C1 [MK-0916, 3-((1s,3s)-1-(4-chlorophenyl)-3-fluorocyclobutyl)-4,5-dicyclopropyl-4H-1,2,4-triazole]",residence time,HSD-1 [1]; [7],3.25 min
same,"plasma levels after multiple doses / steady state, dose proportionality",[3]; in vivo,approximately dose-proportional
same,"plasma exposures after single doses, dose proportionality",[3],substantial non-linearity
same,estimated target capacity / capacity of saturable distribution,[3],~3 mg
N#Cc1ccc(-c2ccc(S(=O)(=O)Nc3cccc(N)n3)cc2)cc1 [PF915275],residence time,HSD-1 [1],5.07 min
same,GC-induced wound healing impairment,mouse,prevented
"O=C(c1csc(-c2cn[nH]c2)c1)N1[C@@H]2CC[C@H]1C[C@](O)(c1ncccn1)C2 [UE-2343, (5-(1H-pyrazol-4-yl)thiophen-3-yl)((1R,3r,5S)-3-hydroxy-3-(pyrimidin-2-yl)-8-azabicyclo[3.2.1]octan-8-yl)methanone]",residence time,HSD-1 [1],9.05 min
same,plasma levels after single doses of 2 and 5 mg,[3]; in vivo,below the level of quantification
same,"plasma exposures after single doses, dose proportionality",[3],greater than dose-proportional
same,mean maximum plasma concentration,[3]; single 10 mg dose,40.4 ng/mL
